Results from patent US12617792B2, “Purine derivative, intermediate and application thereof in preparing anticancer medicine” (SUZHOU RAYMON PHARMACEUTICALS COMPANY, LTD., priority 2019, dated 2026).

target: T1, PI3K-alpha enzyme (Homo sapiens, UniProt P42336); test: PI3-Kinase (human) HTRF Assay kit, PI3K alpha enzyme IC50 determination; type: biochemical; details: ATP 10 μM, PIP2 10 μM, 1% DMSO, double holes for each concentration, read-out: the half inhibitory concentrations (IC50) of the tested compounds on PI3K-alpha
T1 construct: purchased Millipore 14-602
Procedure: Prepare fresh before each use. […] 1 μL of each was added to 24 μL 1× Reaction Buffer. 5 μL of each diluted solution was added into a 384-well plate and contained 1% DMSO. […] This working solution should be prepared with 0.1-0.2 ml more to meet the control usage and dead volume. […] In a 20 μL kinase reaction system, the concentration of ATP was 10 μM. For example, to prepare 2 ml ATP working solution, take 8 μL 10 mM ATP and add it to 1992 μL 1× reaction buffer.

T1 sequence (P42336 whole entry): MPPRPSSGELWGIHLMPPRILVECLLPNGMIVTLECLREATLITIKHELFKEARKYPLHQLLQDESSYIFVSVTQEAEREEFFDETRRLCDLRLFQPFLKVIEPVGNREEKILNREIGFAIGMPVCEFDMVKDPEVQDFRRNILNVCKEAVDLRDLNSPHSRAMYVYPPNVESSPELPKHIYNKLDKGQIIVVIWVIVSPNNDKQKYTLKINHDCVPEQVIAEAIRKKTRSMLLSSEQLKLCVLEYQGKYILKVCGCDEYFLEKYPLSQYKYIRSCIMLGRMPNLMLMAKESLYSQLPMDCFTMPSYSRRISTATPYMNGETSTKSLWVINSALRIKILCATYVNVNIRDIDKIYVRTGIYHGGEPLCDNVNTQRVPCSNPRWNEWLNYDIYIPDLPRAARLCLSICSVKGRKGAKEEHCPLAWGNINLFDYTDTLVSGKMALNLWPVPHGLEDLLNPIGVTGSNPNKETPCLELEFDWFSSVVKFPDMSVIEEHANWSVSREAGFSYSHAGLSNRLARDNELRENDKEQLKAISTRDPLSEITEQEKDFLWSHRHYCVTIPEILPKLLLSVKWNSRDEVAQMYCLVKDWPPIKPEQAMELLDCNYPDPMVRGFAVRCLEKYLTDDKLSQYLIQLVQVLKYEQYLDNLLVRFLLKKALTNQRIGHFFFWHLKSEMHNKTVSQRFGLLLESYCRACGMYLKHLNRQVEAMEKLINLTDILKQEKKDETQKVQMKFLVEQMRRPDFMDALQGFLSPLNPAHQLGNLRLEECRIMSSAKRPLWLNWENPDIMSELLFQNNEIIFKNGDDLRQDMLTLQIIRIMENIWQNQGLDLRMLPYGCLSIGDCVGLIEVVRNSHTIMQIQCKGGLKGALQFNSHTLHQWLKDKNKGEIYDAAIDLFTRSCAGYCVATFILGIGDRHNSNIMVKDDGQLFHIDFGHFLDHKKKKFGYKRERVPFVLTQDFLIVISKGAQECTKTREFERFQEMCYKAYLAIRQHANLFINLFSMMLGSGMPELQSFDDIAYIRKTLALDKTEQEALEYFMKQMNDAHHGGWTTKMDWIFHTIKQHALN
T1 sequence (P27986 whole entry partner): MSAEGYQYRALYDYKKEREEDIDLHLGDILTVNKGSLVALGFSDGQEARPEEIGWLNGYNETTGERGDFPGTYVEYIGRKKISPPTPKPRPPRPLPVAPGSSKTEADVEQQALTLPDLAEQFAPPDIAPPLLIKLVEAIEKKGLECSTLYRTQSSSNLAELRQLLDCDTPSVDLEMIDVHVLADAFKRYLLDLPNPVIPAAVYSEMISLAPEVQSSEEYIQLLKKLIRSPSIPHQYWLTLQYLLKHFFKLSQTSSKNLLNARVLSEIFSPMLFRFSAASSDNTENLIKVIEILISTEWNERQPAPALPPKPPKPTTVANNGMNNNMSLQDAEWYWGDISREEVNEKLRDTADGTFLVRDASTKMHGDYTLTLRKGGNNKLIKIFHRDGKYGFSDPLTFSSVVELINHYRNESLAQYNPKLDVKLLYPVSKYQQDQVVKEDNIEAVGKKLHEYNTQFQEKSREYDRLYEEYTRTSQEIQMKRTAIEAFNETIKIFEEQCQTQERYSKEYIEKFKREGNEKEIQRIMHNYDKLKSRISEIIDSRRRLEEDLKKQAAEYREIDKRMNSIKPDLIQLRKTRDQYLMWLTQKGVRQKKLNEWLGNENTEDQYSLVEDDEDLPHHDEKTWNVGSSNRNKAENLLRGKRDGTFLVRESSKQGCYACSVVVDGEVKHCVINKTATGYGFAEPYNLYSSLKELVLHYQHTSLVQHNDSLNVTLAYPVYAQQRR

IC50 [µM]	Compound
0.0226	O=C(Nc1ccc(CO)cc1)Nc1ccc(-c2nc(N3CCOCC3)c3[nH]cnc3n2)cc1 [RMP-D06, 1-(4-(hydroxymethyl)phenyl)-3-(4-(6-morpholino-7H-purin-2-yl)phenyl)urea]
0.215	O=C(Nc1ccc(-c2nc(N3CCOCC3)c3[nH]cnc3n2)cc1)Nc1ccc(CO)c(C(F)(F)F)c1 [RMP-D07, 1-(4-(hydroxymethyl)-3-(trifluoromethyl)phenyl)-3-(4-(6-morpholino-7H-purin-2-yl)phenyl)urea]
0.0461	O=C(Nc1ccc(COCCN2CCOCC2)cc1)Nc1ccc(-c2nc(N3CCOCC3)c3[nH]cnc3n2)cc1 [RMP-D08, 1-(4-(6-morpholino-7H-purin-2-yl)phenyl)-3-(4-((2-morpholinoethoxy)methyl)phenyl)urea]
